Measured values taken from patent US6967196B1, “Sulfonamide compounds and uses thereof” (Bristol-Myers Squibb Company, priority 1999, dated 2005).
Read-outs that look alike come from different tables or passages of the source.

System: amyloid β production in transfected H4 (human neuroglioma) cells stably expressing APP constructs
Experiment: In vitro cell-based assay of inhibitors of amyloid β production (ELISA)
Conditions: approximately 16 hours incubation, amyloid β in medium by ELISA, read-out: ACTIVITY (IC50, inhibition of amyloid β production)
Procedure, shortened: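 H4 neuroglioma cells stably expressing APP constructs were dosed in fresh medium, screened initially at 10-100 μM, and incubated ~16 h. Medium Aβ was measured by ELISA with C-terminal-epitope capture and N-terminal detection antibodies, quantified from a standard curve, with dose-response testing of actives.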

| Substance | IC50 (transfected H4 cells stably expressing APP constructs) | IC50 (transfected H4 cells stably expressing APP) |
| --- | --- | --- |
| methyl(6R)-6-[(2,5-dichlorophenyl)-[(4-chlorophenyl)sulfonyl]-amino]-3-thioheptanoic [Example 1185] | 25 to 50 nM | – |
| tert-butyl 4-{3-[2-({[(4-chlorophenyl)sulfonyl]anilino}methyl)phenoxy]propyl}-1-piperazinecarboxylate hydrochloride [Example 1028] | – | > 500 nM |
